Measured values from PubChem BioAssay AID1963440 (Molecular Pharmacology Branch, DTP, NCI, 2024).

Test system: NCI-H1417 complex spheroids, growth % test/control
Test: Anticancer human tumor NCI-H1417 cell line growth inhibition [Asc];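 note: spheroids exposed to compounds for 7 days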;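 for viability, T/C: 100% = DMSO vehicle control wells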
Conditions: for IC50: curve of first compound; for viability, T/C: stronger effect = lower value
Outline: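 Concentration series start at each agent's clinical Cmax, or at 10 microM when none is established, and drop in half-log steps; agents are applied alone or together to complex spheroids built with HUVEC and hMSC.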

NC(=O)C(=Cn1cnc(-c2cc(C(F)(F)F)cc(C(F)(F)F)c2)n1)c1cncnc1 + CNC(C)C(=O)NC1CN(S(=O)(=O)c2cccc(S(=O)(=O)N3CCC4CCC(C(=O)NC(c5ccccc5)c5ccccc5)N4C(=O)C(NC(=O)C(C)NC)C3)c2)CCC2CCC(C(=O)NC(c3ccccc3)c3ccccc3)N2C1=O
IC50 (second compound 0.01 µM): > 300 nM | IC50 (second compound 0.0316 µM): 299 nM | IC50 (second compound 0.1 µM): 275 nM | IC50 (second compound 0.316 µM): 265 nM | IC50 (second compound 1 µM): 249 nM | viability, T/C (second compound 0.01 µM, first compound 0.000949 µM): 103% | viability, T/C (second compound 0.01 µM, first compound 0.003 µM): 93.3% | viability, T/C (second compound 0.01 µM, first compound 0.00949 µM): 99.5% | viability, T/C (second compound 0.01 µM, first compound 0.03 µM): 103% | viability, T/C (second compound 0.01 µM, first compound 0.0949 µM): 89.6% | viability, T/C (second compound 0.01 µM, first compound 0.3 µM): 63.3% | viability, T/C (second compound 0.0316 µM, first compound 0.000949 µM): 111% | viability, T/C (second compound 0.0316 µM, first compound 0.003 µM): 94.2% | viability, T/C (second compound 0.0316 µM, first compound 0.00949 µM): 93% | viability, T/C (second compound 0.0316 µM, first compound 0.03 µM): 102% | viability, T/C (second compound 0.0316 µM, first compound 0.0949 µM): 83.5% | viability, T/C (second compound 0.0316 µM, first compound 0.3 µM): 49.6% | viability, T/C (second compound 0.1 µM, first compound 0.000949 µM): 89.3% | viability, T/C (second compound 0.1 µM, first compound 0.003 µM): 104% | viability, T/C (second compound 0.1 µM, first compound 0.00949 µM): 105% | viability, T/C (second compound 0.1 µM, first compound 0.03 µM): 90.2% | viability, T/C (second compound 0.1 µM, first compound 0.0949 µM): 76% | viability, T/C (second compound 0.1 µM, first compound 0.3 µM): 47.8% | viability, T/C (second compound 0.316 µM, first compound 0.000949 µM): 110% | viability, T/C (second compound 0.316 µM, first compound 0.003 µM): 98.7% | viability, T/C (second compound 0.316 µM, first compound 0.00949 µM): 112% | viability, T/C (second compound 0.316 µM, first compound 0.03 µM): 92.2% | viability, T/C (second compound 0.316 µM, first compound 0.0949 µM): 86.7% | viability, T/C (second compound 0.316 µM, first compound 0.3 µM): 45.1% | viability, T/C (second compound 1 µM, first compound 0.000949 µM): 91.5% | viability, T/C (second compound 1 µM, first compound 0.003 µM): 92.7% | viability, T/C (second compound 1 µM, first compound 0.00949 µM): 93% | viability, T/C (second compound 1 µM, first compound 0.03 µM): 94.8% | viability, T/C (second compound 1 µM, first compound 0.0949 µM): 86.9% | viability, T/C (second compound 1 µM, first compound 0.3 µM): 42.6%

CCN1CCN(Cc2ccc(Nc3ncc(F)c(-c4cc(F)c5nc(C)n(C(C)C)c5c4)n3)nc2)CC1 + CNC(C)C(=O)NC1CN(S(=O)(=O)c2cccc(S(=O)(=O)N3CCC4CCC(C(=O)NC(c5ccccc5)c5ccccc5)N4C(=O)C(NC(=O)C(C)NC)C3)c2)CCC2CCC(C(=O)NC(c3ccccc3)c3ccccc3)N2C1=O
IC50 (second compound 0.01 µM): > 1000 nM | IC50 (second compound 0.0316 µM): > 1000 nM | IC50 (second compound 0.1 µM): > 1000 nM | IC50 (second compound 0.316 µM): > 1000 nM | IC50 (second compound 1 µM): > 1000 nM | viability, T/C (second compound 0.01 µM, first compound 0.00316 µM): 100% | viability, T/C (second compound 0.01 µM, first compound 0.01 µM): 108% | viability, T/C (second compound 0.01 µM, first compound 0.0316 µM): 106% | viability, T/C (second compound 0.01 µM, first compound 0.1 µM): 99.7% | viability, T/C (second compound 0.01 µM, first compound 0.316 µM): 96.5% | viability, T/C (second compound 0.01 µM, first compound 1 µM): 111% | viability, T/C (second compound 0.0316 µM, first compound 0.00316 µM): 102% | viability, T/C (second compound 0.0316 µM, first compound 0.01 µM): 103% | viability, T/C (second compound 0.0316 µM, first compound 0.0316 µM): 104% | viability, T/C (second compound 0.0316 µM, first compound 0.1 µM): 105% | viability, T/C (second compound 0.0316 µM, first compound 0.316 µM): 97.4% | viability, T/C (second compound 0.0316 µM, first compound 1 µM): 103% | viability, T/C (second compound 0.1 µM, first compound 0.00316 µM): 93.2% | viability, T/C (second compound 0.1 µM, first compound 0.01 µM): 101% | viability, T/C (second compound 0.1 µM, first compound 0.0316 µM): 99.2% | viability, T/C (second compound 0.1 µM, first compound 0.1 µM): 97.8% | viability, T/C (second compound 0.1 µM, first compound 0.316 µM): 103% | viability, T/C (second compound 0.1 µM, first compound 1 µM): 109% | viability, T/C (second compound 0.316 µM, first compound 0.00316 µM): 99.3% | viability, T/C (second compound 0.316 µM, first compound 0.01 µM): 105% | viability, T/C (second compound 0.316 µM, first compound 0.0316 µM): 90.6% | viability, T/C (second compound 0.316 µM, first compound 0.1 µM): 99.9% | viability, T/C (second compound 0.316 µM, first compound 0.316 µM): 95.2% | viability, T/C (second compound 0.316 µM, first compound 1 µM): 97.7% | viability, T/C (second compound 1 µM, first compound 0.00316 µM): 105% | viability, T/C (second compound 1 µM, first compound 0.01 µM): 109% | viability, T/C (second compound 1 µM, first compound 0.0316 µM): 101% | viability, T/C (second compound 1 µM, first compound 0.1 µM): 110% | viability, T/C (second compound 1 µM, first compound 0.316 µM): 90% | viability, T/C (second compound 1 µM, first compound 1 µM): 93.7%
